Results: ChEMBL document CHEMBL5463727, “Data for DCP probe SGK3-PROTAC1” (2023)
Activity calls are given as the source filed them. The rule behind the calls is not given here.

Experiments:
[1] = target: Mitogen-activated protein kinase 13 (Homo sapiens) (UniProt O15264); assay: % Activity remaining of p38 delta MAPK in the Dundee kinase panel at 1.0 µM; conditions: Compound concentration 1.0 uM
[2] = target: Tyrosine-protein kinase Yes (Homo sapiens) (UniProt P07947); assay: % Activity remaining of YES1 in the Dundee kinase panel at 1.0 µM; conditions: Compound concentration 1.0 uM
[3] = target: MAP kinase-interacting serine/threonine-protein kinase 1 (Homo sapiens) (UniProt Q9BUB5); assay: % Activity remaining of MNK1 in the Dundee kinase panel at 1.0 µM; conditions: Compound concentration 1.0 uM
[4] = target: Serine/threonine-protein kinase Sgk3 (Homo sapiens, UniProt Q96BR1); assay: SGK3 radioactive filter binding assay using 33P ATP (Dundee kinase screen)
[5] = target: Serine/threonine-protein kinase 3 (Homo sapiens) (UniProt Q13188); assay: % Activity remaining of MST2 in the Dundee kinase panel at 1.0 µM; conditions: Compound concentration 1.0 uM
[6] = target: MAP kinase-activated protein kinase 5 (Homo sapiens) (UniProt Q8IW41); assay: % Activity remaining of PRAK in the Dundee kinase panel at 1.0 µM; conditions: Compound concentration 1.0 uM
[7] = target: Casein kinase I isoform delta (Homo sapiens) (UniProt P48730); assay: % Activity remaining of CK1 delta in the Dundee kinase panel at 1.0 µM; conditions: Compound concentration 1.0 uM
[8] = target: Serine/threonine-protein kinase ULK1 (Homo sapiens) (UniProt O75385); assay: % Activity remaining of ULK1 in the Dundee kinase panel at 1.0 µM; conditions: Compound concentration 1.0 uM
[9] = target: Dual specificity protein kinase TTK (Homo sapiens) (UniProt P33981); assay: % Activity remaining of TTK in the Dundee kinase panel at 1.0 µM; conditions: Compound concentration 1.0 uM
[10] = target: Serine/threonine-protein kinase BRSK1 (Homo sapiens) (UniProt Q8TDC3); assay: % Activity remaining of BRSK1 in the Dundee kinase panel at 1.0 µM; conditions: Compound concentration 1.0 uM
[11] = target: Tyrosine-protein kinase CSK (Homo sapiens) (UniProt P41240); assay: % Activity remaining of CSK in the Dundee kinase panel at 1.0 µM; conditions: Compound concentration 1.0 uM
[12] = target: Serine/threonine-protein kinase SIK3 (Homo sapiens) (UniProt Q9Y2K2); assay: % Activity remaining of SIK3 in the Dundee kinase panel at 1.0 µM; conditions: Compound concentration 1.0 uM
[13] = target: Ephrin type-A receptor 2 (Homo sapiens) (UniProt P29317); assay: % Activity remaining of EPH-A2 in the Dundee kinase panel at 1.0 µM; conditions: Compound concentration 1.0 uM
[14] = target: Interleukin-1 receptor-associated kinase 4 (Homo sapiens) (UniProt Q9NWZ3); assay: % Activity remaining of IRAK4 in the Dundee kinase panel at 1.0 µM; conditions: Compound concentration 1.0 uM
[15] = target: Serine/threonine-protein kinase PAK 6 (Homo sapiens) (UniProt Q9NQU5); assay: % Activity remaining of PAK6 in the Dundee kinase panel at 1.0 µM; conditions: Compound concentration 1.0 uM
[16] = target: Serine/threonine-protein kinase 16 (Homo sapiens) (UniProt O75716); assay: % Activity remaining of MPSK1 in the Dundee kinase panel at 1.0 µM; conditions: Compound concentration 1.0 uM
[17] = target: Receptor tyrosine-protein kinase erbB-4 (Homo sapiens) (UniProt Q15303); assay: % Activity remaining of HER4 in the Dundee kinase panel at 1.0 µM; conditions: Compound concentration 1.0 uM
[18] = target: Serine/threonine-protein kinase PAK 2 (Homo sapiens) (UniProt Q13177); assay: % Activity remaining of PAK2 in the Dundee kinase panel at 1.0 µM; conditions: Compound concentration 1.0 uM
[19] = target: TGF-beta receptor type-1 (Homo sapiens) (UniProt P36897); assay: % Activity remaining of TGFBR1 in the Dundee kinase panel at 1.0 µM; conditions: Compound concentration 1.0 uM
[20] = target: 3-phosphoinositide-dependent protein kinase 1 (Homo sapiens) (UniProt O15530); assay: % Activity remaining of PDK1 in the Dundee kinase panel at 1.0 µM; conditions: Compound concentration 1.0 uM
[21] = target: Maternal embryonic leucine zipper kinase (Homo sapiens) (UniProt Q14680); assay: % Activity remaining of MELK in the Dundee kinase panel at 1.0 µM; conditions: Compound concentration 1.0 uM
[22] = target: Serine/threonine-protein kinase pim-3 (Homo sapiens) (UniProt Q86V86); assay: % Activity remaining of PIM3 in the Dundee kinase panel at 1.0 µM; conditions: Compound concentration 1.0 uM
[23] = target: MAP/microtubule affinity-regulating kinase 4 (Homo sapiens) (UniProt Q96L34); assay: % Activity remaining of MARK4 in the Dundee kinase panel at 1.0 µM; conditions: Compound concentration 1.0 uM
[24] = target: Ribosomal protein S6 kinase alpha-5 (Homo sapiens) (UniProt O75582); assay: % Activity remaining of MSK1 in the Dundee kinase panel at 1.0 µM; conditions: Compound concentration 1.0 uM
[25] = target: Dual specificity tyrosine-phosphorylation-regulated kinase 3 (Homo sapiens) (UniProt O43781); assay: % Activity remaining of DYRK3 in the Dundee kinase panel at 1.0 µM; conditions: Compound concentration 1.0 uM
[26] = target: Ephrin type-B receptor 4 (Homo sapiens) (UniProt P54760); assay: % Activity remaining of EPH-B4 in the Dundee kinase panel at 1.0 µM; conditions: Compound concentration 1.0 uM
[27] = target: MAP kinase-activated protein kinase 2 (Homo sapiens) (UniProt P49137); assay: % Activity remaining of MAPKAP-K2 in the Dundee kinase panel at 1.0 µM; conditions: Compound concentration 1.0 uM
[28] = target: Protein kinase C zeta type (Homo sapiens) (UniProt Q05513); assay: % Activity remaining of PKC zeta in the Dundee kinase panel at 1.0 µM; conditions: Compound concentration 1.0 uM
[29] = target: Serine/threonine-protein kinase Nek2 (Homo sapiens) (UniProt P51955); assay: % Activity remaining of NEK2a in the Dundee kinase panel at 1.0 µM; conditions: Compound concentration 1.0 uM
[30] = target: Serine/threonine-protein kinase WNK1 (Homo sapiens) (UniProt Q9H4A3); assay: % Activity remaining of WNK1 in the Dundee kinase panel at 1.0 µM; conditions: Compound concentration 1.0 uM
[31] = target: Dual specificity mitogen-activated protein kinase kinase 6 (Homo sapiens) (UniProt P52564); assay: % Activity remaining of MKK6 in the Dundee kinase panel at 1.0 µM; conditions: Compound concentration 1.0 uM
[32] = target: MAP kinase-activated protein kinase 3 (Homo sapiens) (UniProt Q16644); assay: % Activity remaining of MAPKAP-K3 in the Dundee kinase panel at 1.0 µM; conditions: Compound concentration 1.0 uM
[33] = target: CDK9/cyclin T1 (Homo sapiens) (UniProt O60563+P50750); assay: % Activity remaining of CDK9-Cyclin T1 in the Dundee kinase panel at 1.0 µM; format: protein-complex assay; conditions: Compound concentration 1.0 uM
[34] = target: Mitogen-activated protein kinase kinase kinase kinase 5 (Homo sapiens) (UniProt Q9Y4K4); assay: % Activity remaining of MAP4K5 in the Dundee kinase panel at 1.0 µM; conditions: Compound concentration 1.0 uM
[35] = target: Mitogen-activated protein kinase 7 (Homo sapiens) (UniProt Q13164); assay: % Activity remaining of ERK5 in the Dundee kinase panel at 1.0 µM; conditions: Compound concentration 1.0 uM
[36] = target: Mitogen-activated protein kinase 9 (Homo sapiens) (UniProt P45984); assay: % Activity remaining of JNK2 in the Dundee kinase panel at 1.0 µM; conditions: Compound concentration 1.0 uM
[37] = target: Interleukin-1 receptor-associated kinase 1 (Homo sapiens) (UniProt P51617); assay: % Activity remaining of IRAK1 in the Dundee kinase panel at 1.0 µM; conditions: Compound concentration 1.0 uM
[38] = target: Serine/threonine-protein kinase PAK 5 (Homo sapiens) (UniProt Q9P286); assay: % Activity remaining of PAK5 in the Dundee kinase panel at 1.0 µM; conditions: Compound concentration 1.0 uM
[39] = target: Serine/threonine-protein kinase Chk2 (Homo sapiens) (UniProt O96017); assay: % Activity remaining of CHK2 in the Dundee kinase panel at 1.0 µM; conditions: Compound concentration 1.0 uM
Sequence of Serine/threonine-protein kinase Chk2 (Homo sapiens) (O96017 whole entry): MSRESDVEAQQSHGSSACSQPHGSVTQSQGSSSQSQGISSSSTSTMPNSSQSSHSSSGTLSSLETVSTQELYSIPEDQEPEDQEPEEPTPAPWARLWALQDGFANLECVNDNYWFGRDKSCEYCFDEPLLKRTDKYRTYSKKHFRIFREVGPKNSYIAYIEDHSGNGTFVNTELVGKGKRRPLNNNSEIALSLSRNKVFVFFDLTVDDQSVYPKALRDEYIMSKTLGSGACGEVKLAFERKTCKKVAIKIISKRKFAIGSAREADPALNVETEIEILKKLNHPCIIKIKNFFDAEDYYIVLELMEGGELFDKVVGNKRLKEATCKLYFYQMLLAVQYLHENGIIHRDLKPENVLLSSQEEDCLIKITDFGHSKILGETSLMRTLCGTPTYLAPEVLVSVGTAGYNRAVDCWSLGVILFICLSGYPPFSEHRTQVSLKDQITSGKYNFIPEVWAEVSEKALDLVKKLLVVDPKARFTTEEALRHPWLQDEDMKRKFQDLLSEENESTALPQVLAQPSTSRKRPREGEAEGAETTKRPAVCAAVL

Sequence of Interleukin-1 receptor-associated kinase 1 (Homo sapiens) (P51617 whole entry, looked up): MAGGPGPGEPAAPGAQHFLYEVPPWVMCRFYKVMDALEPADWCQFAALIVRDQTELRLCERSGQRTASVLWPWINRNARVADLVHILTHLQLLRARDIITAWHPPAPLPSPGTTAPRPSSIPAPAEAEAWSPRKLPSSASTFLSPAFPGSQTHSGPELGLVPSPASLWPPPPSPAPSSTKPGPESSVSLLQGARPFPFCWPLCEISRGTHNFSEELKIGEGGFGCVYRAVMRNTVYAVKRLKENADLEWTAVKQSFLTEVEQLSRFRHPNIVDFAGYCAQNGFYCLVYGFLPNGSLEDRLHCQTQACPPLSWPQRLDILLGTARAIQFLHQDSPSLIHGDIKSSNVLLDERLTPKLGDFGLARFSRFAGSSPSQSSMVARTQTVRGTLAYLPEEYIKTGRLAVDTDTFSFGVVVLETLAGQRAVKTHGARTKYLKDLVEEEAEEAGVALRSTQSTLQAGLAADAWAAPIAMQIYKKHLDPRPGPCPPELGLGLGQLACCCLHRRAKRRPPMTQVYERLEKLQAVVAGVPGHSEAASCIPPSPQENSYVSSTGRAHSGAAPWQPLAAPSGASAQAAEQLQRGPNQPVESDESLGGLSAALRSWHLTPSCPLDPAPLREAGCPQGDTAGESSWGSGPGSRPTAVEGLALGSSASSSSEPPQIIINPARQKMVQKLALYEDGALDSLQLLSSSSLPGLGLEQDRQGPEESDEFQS
Sequence of Serine/threonine-protein kinase PAK 5 (Homo sapiens) (Q9P286 whole entry, looked up): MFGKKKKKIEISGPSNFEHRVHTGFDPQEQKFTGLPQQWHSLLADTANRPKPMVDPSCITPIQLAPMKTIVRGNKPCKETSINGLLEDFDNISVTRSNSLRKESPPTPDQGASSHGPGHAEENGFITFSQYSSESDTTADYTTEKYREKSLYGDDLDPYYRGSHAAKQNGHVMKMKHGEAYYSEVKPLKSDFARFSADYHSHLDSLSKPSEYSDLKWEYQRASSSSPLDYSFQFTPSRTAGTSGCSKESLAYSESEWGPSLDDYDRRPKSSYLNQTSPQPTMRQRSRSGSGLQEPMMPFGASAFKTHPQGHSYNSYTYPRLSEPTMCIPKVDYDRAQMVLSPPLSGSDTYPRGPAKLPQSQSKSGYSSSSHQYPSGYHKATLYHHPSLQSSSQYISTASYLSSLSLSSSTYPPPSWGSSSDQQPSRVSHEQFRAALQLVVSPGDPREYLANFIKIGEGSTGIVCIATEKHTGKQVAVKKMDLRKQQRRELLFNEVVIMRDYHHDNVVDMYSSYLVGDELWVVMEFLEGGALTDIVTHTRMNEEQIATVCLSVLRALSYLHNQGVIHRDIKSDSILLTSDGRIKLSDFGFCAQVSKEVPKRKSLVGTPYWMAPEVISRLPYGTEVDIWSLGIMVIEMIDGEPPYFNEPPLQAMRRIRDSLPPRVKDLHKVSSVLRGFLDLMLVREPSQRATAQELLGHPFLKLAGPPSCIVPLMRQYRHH
Sequence of MAP kinase-activated protein kinase 3 (Homo sapiens) (Q16644 whole entry, looked up): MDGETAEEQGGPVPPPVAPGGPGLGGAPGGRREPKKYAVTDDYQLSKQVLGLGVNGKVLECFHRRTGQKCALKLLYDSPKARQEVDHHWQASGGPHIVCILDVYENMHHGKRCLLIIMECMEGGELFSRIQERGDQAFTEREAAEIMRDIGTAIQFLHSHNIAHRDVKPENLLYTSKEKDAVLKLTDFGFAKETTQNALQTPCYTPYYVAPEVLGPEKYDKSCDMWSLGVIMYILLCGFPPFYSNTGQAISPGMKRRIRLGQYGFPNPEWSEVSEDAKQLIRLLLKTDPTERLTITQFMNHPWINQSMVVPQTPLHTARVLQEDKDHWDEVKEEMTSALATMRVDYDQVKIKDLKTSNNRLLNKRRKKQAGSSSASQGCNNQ
Sequence of Casein kinase I isoform delta (Homo sapiens) (P48730 whole entry, looked up, canonical isoform): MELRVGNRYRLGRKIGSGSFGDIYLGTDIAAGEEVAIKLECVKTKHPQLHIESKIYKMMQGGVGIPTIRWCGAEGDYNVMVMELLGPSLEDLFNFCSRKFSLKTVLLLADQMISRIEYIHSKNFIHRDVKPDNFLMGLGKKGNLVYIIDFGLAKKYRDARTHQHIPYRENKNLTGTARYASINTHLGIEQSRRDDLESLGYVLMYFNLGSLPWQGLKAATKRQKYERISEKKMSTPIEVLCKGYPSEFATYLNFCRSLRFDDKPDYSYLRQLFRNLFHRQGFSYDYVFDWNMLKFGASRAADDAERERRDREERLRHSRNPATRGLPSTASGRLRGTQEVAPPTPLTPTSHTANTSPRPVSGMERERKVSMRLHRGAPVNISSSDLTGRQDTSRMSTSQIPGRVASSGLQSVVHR
Sequence of 3-phosphoinositide-dependent protein kinase 1 (Homo sapiens) (O15530 whole entry, looked up): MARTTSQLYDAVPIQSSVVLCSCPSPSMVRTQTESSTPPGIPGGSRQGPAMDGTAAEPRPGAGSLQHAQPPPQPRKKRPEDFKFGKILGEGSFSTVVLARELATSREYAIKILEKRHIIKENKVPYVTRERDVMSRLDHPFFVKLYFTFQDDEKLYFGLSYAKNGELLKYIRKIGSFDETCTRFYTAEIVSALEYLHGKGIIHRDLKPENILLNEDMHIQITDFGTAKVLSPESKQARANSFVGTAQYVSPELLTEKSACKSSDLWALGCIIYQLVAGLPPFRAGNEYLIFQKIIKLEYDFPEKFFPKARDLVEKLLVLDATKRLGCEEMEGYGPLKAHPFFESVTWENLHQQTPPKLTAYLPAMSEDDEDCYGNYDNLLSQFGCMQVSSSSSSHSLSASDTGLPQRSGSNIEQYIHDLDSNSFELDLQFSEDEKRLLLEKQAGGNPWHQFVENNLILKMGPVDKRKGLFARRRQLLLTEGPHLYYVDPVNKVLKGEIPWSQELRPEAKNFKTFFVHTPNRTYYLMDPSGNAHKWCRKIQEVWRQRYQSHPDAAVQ
Sequence of Dual specificity tyrosine-phosphorylation-regulated kinase 3 (Homo sapiens) (O43781 whole entry): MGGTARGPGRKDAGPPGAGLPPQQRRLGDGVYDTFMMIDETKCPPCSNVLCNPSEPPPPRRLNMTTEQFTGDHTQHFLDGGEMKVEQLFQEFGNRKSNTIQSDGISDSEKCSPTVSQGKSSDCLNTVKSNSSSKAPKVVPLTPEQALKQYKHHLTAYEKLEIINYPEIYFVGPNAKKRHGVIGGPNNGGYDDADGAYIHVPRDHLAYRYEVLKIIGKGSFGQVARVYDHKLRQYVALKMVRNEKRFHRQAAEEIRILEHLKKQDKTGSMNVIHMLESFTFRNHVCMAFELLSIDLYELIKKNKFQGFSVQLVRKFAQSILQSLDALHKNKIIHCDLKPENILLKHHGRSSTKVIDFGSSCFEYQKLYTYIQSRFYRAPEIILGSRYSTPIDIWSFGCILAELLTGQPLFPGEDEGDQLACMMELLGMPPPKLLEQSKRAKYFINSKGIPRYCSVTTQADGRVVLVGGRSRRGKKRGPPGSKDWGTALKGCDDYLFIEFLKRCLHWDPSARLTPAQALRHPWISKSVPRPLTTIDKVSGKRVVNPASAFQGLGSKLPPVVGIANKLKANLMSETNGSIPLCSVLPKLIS
Sequence of TGF-beta receptor type-1 (Homo sapiens) (P36897 whole entry): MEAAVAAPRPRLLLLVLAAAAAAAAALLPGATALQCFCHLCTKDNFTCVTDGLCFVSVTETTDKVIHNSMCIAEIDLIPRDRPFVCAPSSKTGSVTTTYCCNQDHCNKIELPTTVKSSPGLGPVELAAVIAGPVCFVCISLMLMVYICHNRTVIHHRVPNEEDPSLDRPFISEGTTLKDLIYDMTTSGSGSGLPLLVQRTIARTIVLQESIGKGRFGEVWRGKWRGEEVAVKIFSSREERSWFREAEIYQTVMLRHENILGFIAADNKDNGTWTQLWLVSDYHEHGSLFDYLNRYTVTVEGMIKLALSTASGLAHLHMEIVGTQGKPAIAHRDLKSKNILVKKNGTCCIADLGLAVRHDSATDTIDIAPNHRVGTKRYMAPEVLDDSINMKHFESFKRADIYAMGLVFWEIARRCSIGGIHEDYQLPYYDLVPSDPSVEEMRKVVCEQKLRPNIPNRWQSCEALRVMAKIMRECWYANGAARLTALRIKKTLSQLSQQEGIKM

SMILES	% Activity remaining [1] [%]	% Activity remaining [2] [%]	% Activity remaining [3] [%]	IC50 [4]	% Activity remaining [5] [%]	% Activity remaining [6] [%]	% Activity remaining [7] [%]	% Activity remaining [8] [%]	% Activity remaining [9] [%]	% Activity remaining [10] [%]	% Activity remaining [11] [%]	% Activity remaining [12] [%]	% Activity remaining [13] [%]	% Activity remaining [14] [%]	% Activity remaining [15] [%]	% Activity remaining [16] [%]	% Activity remaining [17] [%]	% Activity remaining [18] [%]	% Activity remaining [19] [%]	% Activity remaining [20] [%]	other results
Cc1ccc(F)c(S(=O)(=O)Nc2ccc(-c3nc(OC[C@H]4CN(CCCCCCOCCOCCOCC(=O)N[C@H](C(=O)N5C[C@@H](O)C[C@H]5C(=O)NCc5ccc(-c6scnc6C)cc5)C(C)(C)C)CCO4)c4cn[nH]c4n3)cc2)c1	121	105	103	600 nM (not active)	100	119	108	112	99.4	106	113	117	104	98	99.5	139	103	98.7	114	86.5	% Activity remaining [21]: 99.5%; % Activity remaining [22]: 88.8%; % Activity remaining [23]: 100%; % Activity remaining [24]: 56.5%; % Activity remaining [25]: 104%; % Activity remaining [26]: 108%; % Activity remaining [27]: 91.7%; % Activity remaining [28]: 110%; % Activity remaining [29]: 139%; % Activity remaining [30]: 96.6%; % Activity remaining [31]: 108%; % Activity remaining [32]: 77%; % Activity remaining [33]: 105%; % Activity remaining [34]: 101%; % Activity remaining [35]: 108%; % Activity remaining [36]: 109%; % Activity remaining [37]: 105%; % Activity remaining [38]: 105%; % Activity remaining [39]: 99.1%
Cc1ccc(F)c(S(=O)(=O)Nc2ccc(-c3nc(OC[C@H]4CN(CCCCCCOCCOCCOCC(=O)N[C@H](C(=O)N5C[C@H](O)C[C@H]5C(=O)NCc5ccc(-c6scnc6C)cc5)C(C)(C)C)CCO4)c4cn[nH]c4n3)cc2)c1	103	108	108	300 nM (active)	112	115	95	116	89.4	108	118	78.7	94.2	114	97.9	127	92	116	124	99.3	% Activity remaining [21]: 91.5%; % Activity remaining [22]: 88.1%; % Activity remaining [23]: 105%; % Activity remaining [24]: 49.6%; % Activity remaining [25]: 102%; % Activity remaining [26]: 107%; % Activity remaining [27]: 85.8%; % Activity remaining [28]: 96.5%; % Activity remaining [29]: 162%; % Activity remaining [30]: 93.8%; % Activity remaining [31]: 123%; % Activity remaining [32]: 79%; % Activity remaining [33]: 103%; % Activity remaining [34]: 98.6%; % Activity remaining [35]: 102%; % Activity remaining [36]: 117%; % Activity remaining [37]: 98.3%; % Activity remaining [38]: 87.6%; % Activity remaining [39]: 84.8%
